We go through one compound from patent US20250298027A1, “METHOD OF EVALUATING SMALL MOLECULE DISTRIBUTION USING TELLUROPHENE ANALOGUES” (THE GOVERNING COUNCIL OF THE UNIVERSITY OF TORONTO, priority 2022, published 2025).

SMILES strings stand for the structures.

Data set [1] relates to pH2AX^Ser139. Briefly: pH2AX immunohistochemistry of PANC-1 xenograft tumour sections. Format: in vivo, mice. Conditions: 20 mg/kg IP, 2 hours. The protocol: PANC-1 xenograft-bearing mice were injected with either teniposide or the Te-teniposide analogue 1 IP. A dose of 20 mg/kg was selected based on literature reports detailing teniposide drug delivery strategies. After 2 hours, mice were sacrificed and tissues of interest were harvested, formalin fixed, and paraffin embedded. Tissue sections (5 um) were cut and mounted onto microscopy slides. The expression of pH2AX^Ser139 levels were first assessed by immunohistochemistry. Serial sections derived from PANC-1 xenograft tumours were stained with primary antibody and subsequently HRP-conjugated secondary antibody for standard brown staining. DSBs are indicated by large, discrete pH2AX^Ser139 foci. Representative images of immunostained slides show increased pH2AX^Ser139 levels in treated mice relative to saline injected control with clear, punctate staining (FIG. 7).

For data set [2], the system named is pH2AX^Ser139. The data set can be described thus: pH2AX Western blotting in PANC-1 cells. The class given is cell-based, Human. The note with it: 1 μM, 24 and 48 hours. The method, then:
Next, the ability of 1 to induce DSBs—the dominant type of DNA damage resulting from Top2 inhibition was investigated. In response to DSBs, a cascade of DNA repair mechanisms are triggered, including-phosphorylation of the histone variant H2AX at Ser139. Thus, the level of pH2AX^Ser139 serves as a reliable marker for Top2-linked DSBs. Western blotting was used to measure pH2AX^Ser139 in PANC-1 cells treated with 1 μM of either 1 or teniposide for 24 and 48 hours.
pH2AX Blotting: PANC-1 cells (0.5×10^6) cells were seeded in 60 mm plastic petri dishes (Corning Inc. NY) and incubated for 18 h. The spent medium is removed and replaced with fresh medium containing drug ([…]) and incubated for either 24 or 48h. Control cells were treated with DMSO only. The cells were then lysed with RIPA buffer (25 mM Tris·HCl PH 7.6, 150 mM NaCl, 1% NP-40, 1% sodium deoxycholate, 0.1% SDS) (ThermoFisher Scientific) containing Halt Protease Inhibitor Cocktail (Cat. No. 78410) and Halt Phosphatase Inhibitor Cocktail (Cat. No. 78420) as per manufacturer's protocol. […] Antibodies (Abcam, Cambridge, MA) targeting the following proteins were used H2AX (S139) (ab11174, polyclonal) and β-tubulin (ab6046, polyclonal).

Data set [3] concerns PANC-1 cells. The data set can be described thus: alamarBlue viability assay in PANC-1 cells. The class given is cell-based, Human. The note with it: maximum dose of 25 μM, 72 hours exposure. The protocol:
Similarly, PANC1 cells were characterized for later in vivo experiments. Using an alamarBlue viability assay and a proliferative assay, PANC-1 cells were incubated with 1 or teniposide.
AlamarBlue assay: PANC-1 cells were seeded into black, clear-bottom 96-well assay plates (Corning; CLS3603) and incubated for 24 hours. The medium was replaced with […] of teniposide or compound 1. After 72 hours exposure to drug, alamarBlue (Thermo Fisher Scientific; DAL1100) cell viability reagent was added and incubated for 4 hours at 37° C. Fluorescence intensity was measured using an excitation wavelength of 560 nm and an emission of 590 nm. Cell viability was calculated by normalizing to an untreated control.
A general note: The colour change of resazurin is a common sign of viable cells or microbes.

For data set [4], the target named is T1, Top2 (Homo sapiens, UniProt P11388).
T1 construct: purchased TopoGEN, Inc
T1 sequence (P11388 whole entry): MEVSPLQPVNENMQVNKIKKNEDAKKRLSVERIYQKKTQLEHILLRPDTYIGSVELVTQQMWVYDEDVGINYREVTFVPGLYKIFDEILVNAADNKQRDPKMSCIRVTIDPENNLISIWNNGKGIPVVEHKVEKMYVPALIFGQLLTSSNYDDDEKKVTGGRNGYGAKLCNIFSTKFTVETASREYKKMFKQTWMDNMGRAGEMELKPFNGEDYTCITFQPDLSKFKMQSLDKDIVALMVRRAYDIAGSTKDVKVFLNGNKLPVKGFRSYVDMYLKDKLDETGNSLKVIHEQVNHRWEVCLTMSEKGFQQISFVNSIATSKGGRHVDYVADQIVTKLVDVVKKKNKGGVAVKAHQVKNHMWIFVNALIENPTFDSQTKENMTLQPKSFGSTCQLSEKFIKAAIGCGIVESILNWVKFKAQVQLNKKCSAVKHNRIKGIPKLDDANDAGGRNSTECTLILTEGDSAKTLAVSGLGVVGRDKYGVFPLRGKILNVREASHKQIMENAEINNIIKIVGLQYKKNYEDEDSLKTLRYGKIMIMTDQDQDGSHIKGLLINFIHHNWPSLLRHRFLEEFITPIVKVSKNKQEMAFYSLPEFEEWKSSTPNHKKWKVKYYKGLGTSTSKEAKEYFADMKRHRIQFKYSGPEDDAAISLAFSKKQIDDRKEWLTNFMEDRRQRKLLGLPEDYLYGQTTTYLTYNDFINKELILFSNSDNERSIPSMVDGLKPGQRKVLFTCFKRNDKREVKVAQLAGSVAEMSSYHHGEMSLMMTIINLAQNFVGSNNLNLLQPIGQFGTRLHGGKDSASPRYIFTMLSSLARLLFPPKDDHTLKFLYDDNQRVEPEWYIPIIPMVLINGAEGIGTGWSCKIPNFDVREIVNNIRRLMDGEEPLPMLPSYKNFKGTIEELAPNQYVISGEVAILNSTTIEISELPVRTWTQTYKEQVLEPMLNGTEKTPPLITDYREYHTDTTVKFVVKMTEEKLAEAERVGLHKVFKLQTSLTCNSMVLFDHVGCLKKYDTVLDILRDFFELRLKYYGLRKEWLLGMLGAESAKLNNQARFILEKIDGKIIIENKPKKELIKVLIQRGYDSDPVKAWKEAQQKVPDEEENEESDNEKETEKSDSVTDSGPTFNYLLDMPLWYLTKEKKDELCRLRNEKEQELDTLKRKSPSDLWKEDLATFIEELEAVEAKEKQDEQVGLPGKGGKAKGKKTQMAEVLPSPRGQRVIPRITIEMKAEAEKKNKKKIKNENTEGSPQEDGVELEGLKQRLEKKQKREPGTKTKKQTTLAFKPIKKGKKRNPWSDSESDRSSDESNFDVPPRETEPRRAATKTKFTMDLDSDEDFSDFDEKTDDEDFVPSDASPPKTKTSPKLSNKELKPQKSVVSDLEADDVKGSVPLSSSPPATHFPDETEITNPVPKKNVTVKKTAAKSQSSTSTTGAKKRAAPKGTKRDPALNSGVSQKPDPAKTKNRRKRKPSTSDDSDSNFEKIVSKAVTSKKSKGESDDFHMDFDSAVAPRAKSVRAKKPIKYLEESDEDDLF
Briefly: Top2 decatenation assay using kinetoplast DNA. Format: biochemical. The method, then:
The relative Top2 inhibitory activity of 1 in comparison to teniposide was evaluated in decatenation assays using kinetoplast DNA (kDNA). Decatenation of the DNA, catalyzed by Top2, can be readily resolved using agarose gel electrophoresis.
Top2 decatenation assay: The assay was performed according to manufacturer's protocol (TopoGEN, Inc.). The total reaction volume was 20 μL of assay buffer (120 mM KCl, 50 mM Tris-HCl, 10 mM MgCl2, 0.5 mM DTT, 0.5 mM ATP, and 30 μg/mL BSA) and 120 ng of kinetoplast DNA (kDNA) substrate. One unit of TopoII enzyme in was added to reaction microfuge tubes in the presence or absence of inhibitor. The reaction was incubated for 30 min at 37° C. The reaction was stopped by addition of 5 μL of stop buffer (5% sarkosyl, 0.025% bromophenolblue, and 50% glycerol). The samples were then analyzed using electrophoresis using a 1% agarose gel in Tris-borate-EDTA buffer with 0.5 pg/mL ethidium bromide stain. Gels were imaged using Syngene G: Box Gel Imager (Chemi-XT4 GENESys software with preset for ethidium bromide stained agarose gels). Band intensities were analyzed using ImageJ software.

The nature of data set [5]: IMC analysis of tellurium in PANC-1 xenograft tumour sections.
From the text: For IMC™ analysis, the initial objective was to visualize tellurium signal distribution in tumour sections and subsequently measure relative tellurium content in individual cells. Tumour sections were dewaxed, rehydrated and washed. Slides then were stained with Ir-intercalator to visualize cell nuclei, and then imaged by IMC™. The ^125Te isotope was visualised. […] Without wishing to be bound by theory, it was hypothesized that the processing of the FFPE tissues contributes to loss of tellurium signal as the teniposide interaction with the cells is largely non-covalent, thus the multiple wash steps required for dewaxing (xylene and ethanol washes) might have removed bound 1. To reduce the number of tissue processing steps, snap frozen samples prepared from the same tumours were sectioned and analyzed by IMC™.
To determine the corresponding concentration of Te present in the sample a set of standards containing increasing concentrations of Te were analyzed by IMC™. Based on the total counts present in each standard Te spot a count/Te atom constant was calculated (FIG. 8E).
Generation of murine PANC-1 xenograft model: All 6-week-old female NOD SCID mice (Charles River (Wilmington, MA) were maintained under specific pathogen-free (SPF) conditions at the Princess Margaret Cancer Centre (PMCC) facility. All animal experiments in this study were performed in accordance with the Animal Research Committee guidelines of the University Health Network institution. The subcutaneous PANC-1 xenograft mice were generated as described previously in Telox studies. The vehicle was prepared as follows: 30 mg benzyl alcohol, 60 mg N,N-dimethylacetamide, 500 mg purified Cremophor EL (Kolliphor EL), and 2.1 mL dehydrated alcohol were combined in a vial. The solution was topped with distilled water for a final volume of 5 mL. The pH of the clear solution is adjusted to pH ˜5 with maleic acid. For injections, drug was diluted with vehicle for a final concentration of 10 mg/mL and administered at 20 mg/kg by I.P. The mice were maintained in three groups; group 1 mice were injected with teniposide, group 2 received 1, and group 3 with normal saline. After 2 hours, mice were scarified, and tumors were extracted. […]
In data set [6] the test system is HL-60 cells. Briefly: WST-1 viability assay in HL-60 cells. The class given is cell-based. The note with it: Homo sapiens, HL-60, 24 h, read-out: inhibition of proliferation of HL-60 cells. The protocol: The toxicity of 1 was compared to teniposide in HL-60 cells after incubation for 24 hours using a WST-1 viability assay.
WST-1 metabolic cytotoxicity assay: HL-60 cells (ATCC® CCL-240TM) were maintained in DMEM media with 2 mM L-glutamine (Gibco) supplemented with 20% calf serum and 100× dilution of penicillin-streptomycin solution (Gibco). Cells were maintained at 37° C. in a humidified atmosphere of 5% CO2 in air. HL-60 cells (100 pL) were seeded into a 96 well clear at a density of 5×10^5 cells/mL. Cells were treated with either DMSO or appropriate inhibitor from DMSO stocks. […] Cells were incubated for 24 h at 37° C. under a 5% CO2 atmosphere. WST-1 reagent (10 pL; Roche Diagnostics, 05015944001) was added to each well and gently mixed by pipetting. Cells were incubated for 1 h at 37° C. under 5% CO2 atmosphere. UV-vis absorbance measurements of each well at 450 nm was recorded using a TECAN Safire 2 plate reader. Data was background corrected against wells that contained cell growth media without cells and WST-1. Experiment was performed in triplicate.

A word on the IC50: it is the point on the concentration scale where inhibition reaches its midpoint. A higher IC50 goes with lower potency. With `COc1cc([C@@H]2c3cc4c(cc3[C@@H](OC3OC5COC(c6ccc[te]6)OC5C(O)C3O)[C@H]3COC(=O)C23)OCO4)cc(OC)c1O` (stereo partly shown) [Compound 1, Tellurium-labelled teniposide], the “pH2AX^Ser139 levels in tumour sections relative to saline injected control” value in data set [1] is recorded as “increased”. In data set [2], the “levels of pH2AX^Ser139 relative to DMSO-treated control” value was “Increased levels”. In data set [3], the “loss of cell viability in PANC-1 cells” value was “almost complete loss of cell viability”. The same compound gave an IC50 in data set [4] of 5.6 µM. In addition, the “inhibition of the decatenation reaction” value in data set [4] (5, 10, 25 and 50 μM) was “dose-dependent inhibition”. The “^125Te signal in snap frozen tumour sections by IMC” value in data set [5] (20 mg/kg IP, 2 h before sacrifice, frozen sections) is “signals were observed”. Besides, in data set [5] (20 mg/kg IP, 2 hours, FFPE sections, ^125Te), the “Te signal in FFPE tumour sections by IMC” value is reported as “no Te signal above background”. In addition, the “Te signal in samples collected at later timepoints after dosing” value in data set [5] (frozen sections, later timepoints) is reported as “not observed”. The “average concentration in the tissue” value in data set [5] (frozen tumour sections, at the time of analysis, no precise value) is listed as “low tens”. Besides, the inhibition at 50 µM in data set [6] is not above 60%.
